In brackets after ≈: the same amount, converted by molar mass.

Test [1] has as its system MRSA (MW2). Kind of test: Oxacillin MIC quoted for the flow cell experiment. In kind it is cell-based. The settings on record: Staphylococcus aureus.
Test [2] concerns MSSA (Sanger 476). The test can be described thus: Oxacillin MIC quoted for the flow cell experiment. In kind it is cell-based. The settings on record: Staphylococcus aureus.
Test [3] concerns MSSA (Sanger 476) and MRSA (MW2) strains. The test can be described thus: Single-channel flow cell, immobilized cells under shear and lysostaphin stress with oxacillin, Sytox green staining. The test is classed as cell-based, Staphylococcus aureus. The settings on record: 10 μg/mL oxacillin, 0.6 ng/mL lysostaphin, ~4200 s^-1 shear rate for 15 mins after 40 min pretreatment with lysostaphin and shear; 0.5 μM Sytox green. Here is the method:
The Staphylococcus aureus (MRSA strain MW2 and MSSA strain Sanger 476) were grown to log phase in Mueller-Hinton broth with 2% sodium chloride (MH2) and then immobilized on epoxide slides, which is a non-specific method for immobilizing bacteria and can be used instead of the adhesin mechanism. To immobilize the bacteria, 100 μL of culture was placed on the epoxide slide (Super-epoxy II, Telechem International) and incubated at 37° C. for 45 min in a humid environment. The immobilized cells were briefly rinsed with water and Block-it buffer (Telechem International) to quench any remaining un-reacted epoxide bonds.
On two separate slides, MSSA (Sanger 476) and MRSA (MW2) strains were immobilized. The cells were assembled in channels of ˜300 μm width and stained with 0.5 μM Sytox green in MH2. The immobilized cells were stressed with 0.6 ng/mL lysostaphin, ˜4200 s^−1 shear rate, and 10 μg/mL oxacillin for 15 mins after a 40 min pretreatment with lysostaphin and shear alone. The lysostaphin concentration was chosen to be lower than the MIC (˜1 ng/mL).

Test [4] relates to Sanger 476 methicillin sensitive cells. Kind of test: 4-channel flow cell, Sytox Green fluorescence of immobilized cells. The test is classed as cell-based, Staphylococcus aureus. The settings on record: flow rate 1 mL/min, 0.5 μM Sytox Green. Here is the method: (§1) This 4-channel arrangement was used to test a single strain of bacteria in the presence or absence of chemical stress (e.g., lysostaphin). The flow rate used in the channels was 1 mL/min and 0.5 μM Sytox Green was used to stain damaged or dying cells.
(§2) In each experiment, bacteria in two channels were exposed to 0.7 ng/mL lysostaphin (lyso) in the presence or absence of the antibiotic oxacillin (oxa; 50 μg/mL). The four experimental groups are as follows: (i) control (no oxa; no lyso), (ii) lyso only; (iii) oxa only, and (iv) lyso and oxa together.

In test [5] the test system is MW2 methicillin resistant cells. The description is as above. The settings on record: oxacillin 50 μg/mL or lysostaphin 0.7 ng/mL alone, flow rate 1 mL/min, 0.5 μM Sytox Green. The test is classed as cell-based, Staphylococcus aureus. Here is the method: as §1, §2
For test [6], the system named is Staphylococcus aureus. Kind of test: Lysostaphin MIC quoted for the flow cell experiment. The settings on record: strain not stated; quoted to justify 0.6 ng/mL lysostaphin. In kind it is cell-based.
For test [7], the system named is strain Sanger 476. Kind of test: Classical microdilution broth MIC of lysostaphin. In kind it is cell-based, Staphylococcus aureus. As to conditions: MHB, 5×10^5 CFU/mL, overnight incubation at 37° C. An excerpt:
(§3) A classical microdilution broth method was used to determine the lysostaphin minimum inhibitory concentrations for strains MW2 and Sanger 476 (Jones, R. N., et al. Manual of clinical microbiology, A. Balows, J. W. J. Hausler, and H. J. Shadomy, Editors. 1985, American Society for Microbiology: Washington D.C. p. 972-977). Briefly, logarithmic-phase bacteria were cultivated in Mueller-Hinton cation-adjusted broth (MHB) and adjusted to a concentration of 1×10^6 CFU/mL. Sterile microtiter plates containing 100 μl of lysostaphin diluted in MHB were inoculated with 100 μl of the bacterial suspension to yield 5×10^5 CFU/mL. After overnight incubation at 37° C. overnight, the MIC for both strains was 0.06 μg/mL.

For test [8], the system named is strain MW2. Kind of test: Classical microdilution broth MIC of lysostaphin. The settings on record: MHB, 5×10^5 CFU/mL, overnight incubation at 37° C. The test is classed as cell-based, Staphylococcus aureus.
Excerpt: as §3

Turning to `Cc1onc(-c2ccccc2)c1C(=O)N[C@@H]1C(=O)N2[C@@H]1SC(C)(C)[C@@H]2C(=O)O` [oxacillin], the figures for the MIC in test [1] and in test [2] were more than 16 µg/mL and 0.5 µg/mL (≈ 1.25 µM), respectively. The “cell death, MSSA compared with MRSA” value in test [3] is on record as “More MSSA cells died during the course of the experiment than MRSA cells”. In addition, the “time point at which fluorescence was increased” value in test [4] (oxacillin 50 μg/mL with or without 0.7 ng/mL lysostaphin) is recorded as “approximately 20 min”. The “fluorescence compared to control MW2 cells” value in test [5] is “no substantial increase”.
With lysostaphin, the minimum inhibitory concentration (MIC) in test [6] is approximately 0.001 µg/mL. Moreover, the “minimum inhibitory concentration (MIC)” value in test [7] and in test [8] was 0.06 µg/mL throughout. For the same compound, the “level of fluorescence compared with the control channel” value in test [4] (0.7 ng/mL lysostaphin) is given as “not substantially different”. In addition, the “fluorescence compared to control MW2 cells” value in test [5] is reported as “small increase”.
